Reference: US8501800B2, “Controlled-release ophthalmic vehicles” (Insite Vision Incorporated, priority 2009, dated 2013)

Experiment: Release of fluorometholone in the rabbit eye, measured in aqueous humor
Assay type: in vivo
Conditions: measured by fluorometholone contained in the aqueous humor
Method: The viscous gels that result upon administration of the aqueous suspensions of this invention to the eye have residence times in the eye ranging from about 2 to about 12 hours, e.g., from about 3 to about 6 hours. The active ingredients contained in these ophthalmically acceptable vehicles are released from the gels at rates that depend on such factors as the active ingredient itself and its physical form, the extent of drug loading and the pH of the system, as well as on any drug delivery adjuvants, such as ion exchange resins compatible with the ocular surface, which can also be present.

SMILES: CC(=O)[C@@]1(O)CC[C@H]2[C@@H]3C[C@H](C)C4=CC(=O)C=C[C@]4(C)[C@@]3(F)[C@@H](O)C[C@@]21C [fluorometholone]
- Release rates in the rabbit eye: in excess of four hours
